pIC50: −log10 of the molar value. Calls of active or inactive are those of the source. The rule behind the calls is not given here.
Columns and labels:
[1] = Volume of distribution at steady state in Beagle dog; assay type: ADME, organism-based, Canis lupus familiaris; details: in vivo, read-out: Vdss
[2] = Half life in Beagle dog; assay type: ADME, organism-based, Canis lupus familiaris; details: in vivo
Histone deacetylase 1 = Histone deacetylase 1 (Homo sapiens, UniProt Q13547); test: Inhibition of HDAC1
Chain of Histone deacetylase 1 (Q13547 whole entry): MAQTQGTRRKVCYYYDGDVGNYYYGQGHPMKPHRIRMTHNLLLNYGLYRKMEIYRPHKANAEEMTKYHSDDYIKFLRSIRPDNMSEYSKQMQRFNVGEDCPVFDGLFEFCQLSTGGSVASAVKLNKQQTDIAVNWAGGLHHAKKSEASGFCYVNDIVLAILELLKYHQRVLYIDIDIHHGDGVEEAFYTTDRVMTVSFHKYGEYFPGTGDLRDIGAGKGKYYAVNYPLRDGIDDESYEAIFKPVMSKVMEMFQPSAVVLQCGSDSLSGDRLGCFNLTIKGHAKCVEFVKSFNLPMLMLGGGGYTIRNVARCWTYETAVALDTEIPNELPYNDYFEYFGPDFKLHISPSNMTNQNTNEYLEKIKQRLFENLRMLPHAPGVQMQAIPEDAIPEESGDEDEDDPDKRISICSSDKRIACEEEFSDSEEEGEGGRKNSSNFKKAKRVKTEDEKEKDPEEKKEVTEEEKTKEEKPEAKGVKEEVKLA

HCT-116 [3] = test: Antiproliferative activity against human HCT116 cells after 72 hrs; assay type: functional; details: HCT-116, 72 h
[4] = Clearance in Sprague-Dawley rat plasma; assay type: ADME, organism-based
[5] = Oral bioavailability in Sprague-Dawley rat; assay type: ADME, organism-based; details: in vivo
[6] = AUC (0 to infinity) in po dosed Sprague-Dawley rat; assay type: ADME, organism-based; set-up: time infinity, route oral; details: plasma
[7] = Volume of distribution at steady state in Sprague-Dawley rat; assay type: ADME, organism-based; details: in vivo, read-out: Vdss
[8] = Half life in Sprague-Dawley rat; assay type: ADME, organism-based; details: in vivo
[9] = AUC (0 to infinity) in Swiss-Webster mouse; assay type: ADME, organism-based; set-up: time infinity; details: plasma
[10] = Volume of distribution at steady state in Swiss-Webster mouse; assay type: ADME, organism-based; details: in vivo, read-out: Vdss
[11] = Half life in Swiss-Webster mouse; assay type: ADME, organism-based; details: in vivo
[12] = AUC (0 to infinity) in Beagle dog; assay type: ADME, organism-based, Canis lupus familiaris; set-up: time infinity; details: plasma
[13] = Plasma concentration in ip dosed nude CD-1 mouse after 3 hrs
[14] = Cmax in mouse at 150 mg/kg, po; assay type: ADME, organism-based; set-up: dose 150 mg/kg, route oral; details: in vivo
[15] = AUC in mouse at 150 mg/kg, po; assay type: ADME, organism-based, Plasma; set-up: dose 150 mg/kg, route oral; details: whole blood
Mus musculus [16] = test: Effect on histone H2B acetylation in human HCT116 cells xenografted in CD1 mouse assessed as change in ratio of acetylated to deacetylated histone level at 150 mg/kg, po QD for 3 days measured after 24 hrs; assay type: functional, organism-based; set-up: dose 150 mg/kg; details: HCT-116
HCT-116 [17] = test: Antitumor activity against human HCT116 cells xenografted in po dosed mouse assessed as reduction in tumor growth dosed daily for 21 days; assay type: functional, organism-based
Mus musculus [18] = test: Toxicity in human HCT116 cells xenografted CD1 mouse assessed as body weight loss at 100 mg/kg, po after 21 days; assay type: organism-based, HCT-116; set-up: dose 100 mg/kg, route oral; details: in vivo, 504 h

pIC50 (Histone deacetylase 1)	GI50 (HCT-116 [3])	Cmax [14]	AUC [15]	SMILES	also measured
7.89	250 nM			CCOP(=O)(Cc1ccc(C(=O)Nc2cc(-c3cccs3)ccc2N)cc1)OCC	Vd [1]: 2.85 L/kg; half-life [2]: 0.43 h; clearance [4]: 15.8 mL/min/kg; bioavailability [5]: 45%; AUC(0-inf) [6]: 4.4 µM·h; Vd [7]: 7.27 L/kg; half-life [8]: 5.5 h; AUC(0-inf) [9]: 0.17 µM·h; Vd [10]: 20.1 L/kg; half-life [11]: 55 h; AUC(0-inf) [12]: 0.25 µM·h; concentration at 3 h [13]: 1.54 µM
7.55	> 20000 nM			Nc1ccc(-c2cccs2)cc1NC(=O)c1ccc(CP(=O)(O)c2ccccc2)cc1	
7.28	420 nM	39 µM	60 µM·h	COP(C)(=O)c1ccc(C(=O)Nc2cc(-c3cccs3)ccc2N)cc1 (stereo not drawn)	
7.05	6000 nM			CCP(=O)(Cc1cccc(C(=O)Nc2cc(-c3cccs3)ccc2N)c1)OC (stereo not drawn)	
7.38	> 20000 nM			CCOP(=O)(O)c1ccc(C(=O)Nc2cc(-c3cccs3)ccc2N)cc1	
7.27	160 nM	88 µM	115 µM·h	COP(C)(=O)Cc1ccc(C(=O)Nc2cc(-c3cccs3)ccc2N)cc1 (stereo not drawn)	Activity (Mus musculus [16]): Active; Activity (HCT-116 [17]): Dose-dependent effect; Activity (Mus musculus [18]): 22%
7.96	270 nM	1.9 µM	1.3 µM·h	CC(C)P(=O)(Cc1ccc(C(=O)Nc2cc(-c3cccs3)ccc2N)cc1)C(C)C	
7.54	380 nM	11 µM	12 µM·h	COP(=O)(c1ccccc1)c1ccc(C(=O)Nc2cc(-c3cccs3)ccc2N)cc1 (stereo not drawn)	
7.64	2500 nM			CCOP(=O)(Cc1cccc(C(=O)Nc2cc(-c3cccs3)ccc2N)c1)OCC	
7.70	360 nM			COP(=O)(Cc1ccc(C(=O)Nc2cc(-c3cccs3)ccc2N)cc1)c1ccccc1 (stereo not drawn)	
7.80	330 nM	31 µM	50 µM·h	CCOP(C)(=O)Cc1ccc(C(=O)Nc2cc(-c3cccs3)ccc2N)cc1 (stereo not drawn)	Activity (Mus musculus [16]): inactive

Reference: ChEMBL document CHEMBL1153943, “Exploring the pharmacokinetic properties of phosphorus-containing selective HDAC 1 and 2 inhibitors (SHI-1:2)” (Bioorg Med Chem Lett, 2009)
